Results as given in US10028508B2, “Use of active compound compositions” (BAYER CROPSCIENCE AKTIENGESELLSCHAFT, priority 2014, dated 2018).
Like-named read-outs stand apart in the source and are kept apart here.

Tested on: Anopheles funestus metabolic-resistant strain FUMOZ-R
Test: Metabolic-Resistant Anopheles Test (mortality on treated tile, wood, concrete)
Assay type: in vivo
Settings: for mortality at 12.5 mg/m2: Deltamethrin 12.5 mg/m2, read-out: Mortality Effect %; for mortality at 25 mg/m2: Deltamethrin 25 mg/m2, read-out: Mortality Effect %
Experimental: To produce a suitable preparation of active compound combination the active compounds deltamethrin and clothanidin were dissolved in acetone (for the control group only one active compound was dissolved in acetone). The active compound combination preparation (and the active compound preparations) were pipetted onto a glazed tile, wood and concrete and, after drying, adult mosquitoes of the species Anopheles funestus metabolic-resistant strain FUMOZ-R (Hunt et al., Med Vet Entomol. 2005 September; 19(3):271-5) are placed onto the treated tile, wood and concrete. The exposition time is 30 minutes.
1 hour, 2 hour, 4 hour, 24 hours after contact to the treated surface, the mortality proportion of the test animals in % is determined. Here, 100% means that all mosquitoes have been killed; 0% means that none of the mosquitoes has been killed. The treated tile, wood and concrete was stored under stress conditions (30° C./80% rh). Measurement with the treated tile, wood and concrete was repeated 5 weeks (Table 1), 11 weeks (Table 2) and 60 weeks (Table 3) after the treatment with the active compound combination.

[1] = 5 weeks after treatment, Concrete, 1 h after contact
[2] = 5 weeks after treatment, Concrete, 2 h after contact
[3] = 5 weeks after treatment, Concrete, 4 h after contact
[4] = 5 weeks after treatment, Concrete, 24 h after contact
[5] = 5 weeks after treatment, Tile, 1 h after contact
[6] = 5 weeks after treatment, Tile, 2 h after contact
[7] = 5 weeks after treatment, Tile, 4 h after contact
[8] = 5 weeks after treatment, Tile, 24 h after contact
[9] = 5 weeks after treatment, Wood, 1 h after contact
[10] = 5 weeks after treatment, Wood, 2 h after contact
[11] = 5 weeks after treatment, Wood, 4 h after contact
[12] = 5 weeks after treatment, Wood, 24 h after contact
[13] = 11 weeks after treatment, Concrete, 1 h after contact
[14] = 11 weeks after treatment, Concrete, 2 h after contact
[15] = 11 weeks after treatment, Concrete, 4 h after contact
[16] = 11 weeks after treatment, Concrete, 24 h after contact
[17] = 11 weeks after treatment, Tile, 1 h after contact
[18] = 11 weeks after treatment, Tile, 2 h after contact
[19] = 11 weeks after treatment, Tile, 4 h after contact
[20] = 11 weeks after treatment, Tile, 24 h after contact
[21] = 11 weeks after treatment, Wood, 1 h after contact
[22] = 11 weeks after treatment, Wood, 2 h after contact
[23] = 11 weeks after treatment, Wood, 4 h after contact
[24] = 11 weeks after treatment, Wood, 24 h after contact
[25] = 60 weeks after treatment, Concrete, 1 h after contact
[26] = 60 weeks after treatment, Concrete, 2 h after contact
[27] = 60 weeks after treatment, Concrete, 4 h after contact
[28] = 60 weeks after treatment, Concrete, 24 h after contact
[29] = 60 weeks after treatment, Tile, 1 h after contact
[30] = 60 weeks after treatment, Tile, 2 h after contact
[31] = 60 weeks after treatment, Tile, 4 h after contact
[32] = 60 weeks after treatment, Tile, 24 h after contact
[33] = 60 weeks after treatment, Wood, 1 h after contact
[34] = 60 weeks after treatment, Wood, 2 h after contact
[35] = 60 weeks after treatment, Wood, 4 h after contact
[36] = 60 weeks after treatment, Wood, 24 h after contact

CC1(C)[C@H](C(=O)O[C@H](C#N)c2cccc(Oc3ccccc3)c2)[C@@H]1C=C(Br)Br [Deltamethrin, deltamethrin]
mortality at 12.5 mg/m2 [1]: 70%
mortality at 25 mg/m2 [1]: 90%
mortality at 12.5 mg/m2 [2]: 87%
mortality at 25 mg/m2 [2]: 100%
mortality at 12.5 mg/m2 [3]: 100%
mortality at 25 mg/m2 [3]: 100%
mortality at 12.5 mg/m2 [4]: 30%
mortality at 25 mg/m2 [4]: 73%
mortality at 12.5 mg/m2 [5]: 17%
mortality at 25 mg/m2 [5]: 7%
mortality at 12.5 mg/m2 [6]: 77%
mortality at 25 mg/m2 [6]: 83%
mortality at 12.5 mg/m2 [7]: 97%
mortality at 25 mg/m2 [7]: 100%
mortality at 12.5 mg/m2 [8]: 100%
mortality at 25 mg/m2 [8]: 93%
mortality at 12.5 mg/m2 [9]: 10%
mortality at 25 mg/m2 [9]: 30%
mortality at 12.5 mg/m2 [10]: 77%
mortality at 25 mg/m2 [10]: 90%
mortality at 12.5 mg/m2 [11]: 80%
mortality at 25 mg/m2 [11]: 93%
mortality at 12.5 mg/m2 [12]: 77%
mortality at 25 mg/m2 [12]: 83%
mortality at 12.5 mg/m2 [13]: 3%
mortality at 25 mg/m2 [13]: 13%
mortality at 12.5 mg/m2 [14]: 0%
mortality at 25 mg/m2 [14]: 43%
mortality at 12.5 mg/m2 [15]: 17%
mortality at 25 mg/m2 [15]: 63%
mortality at 12.5 mg/m2 [16]: 30%
mortality at 25 mg/m2 [16]: 73%
mortality at 12.5 mg/m2 [17]: 0%
mortality at 25 mg/m2 [17]: 10%
mortality at 12.5 mg/m2 [18]: 0%
mortality at 25 mg/m2 [18]: 33%
mortality at 12.5 mg/m2 [19]: 0%
mortality at 25 mg/m2 [19]: 43%
mortality at 12.5 mg/m2 [20]: 3%
mortality at 25 mg/m2 [20]: 63%
mortality at 12.5 mg/m2 [21]: 0%
mortality at 25 mg/m2 [21]: 0%
mortality at 12.5 mg/m2 [22]: 0%
mortality at 25 mg/m2 [22]: 27%
mortality at 12.5 mg/m2 [23]: 20%
mortality at 25 mg/m2 [23]: 80%
mortality at 12.5 mg/m2 [24]: 13%
mortality at 25 mg/m2 [24]: 70%
mortality at 12.5 mg/m2 [25]: 0%
mortality at 25 mg/m2 [25]: 0%
mortality at 12.5 mg/m2 [26]: 0%
mortality at 25 mg/m2 [26]: 0%
mortality at 12.5 mg/m2 [27]: 0%
mortality at 25 mg/m2 [27]: 0%
mortality at 12.5 mg/m2 [28]: 13%
mortality at 25 mg/m2 [28]: 23%
mortality at 12.5 mg/m2 [29]: 0%
mortality at 25 mg/m2 [29]: 0%
mortality at 12.5 mg/m2 [30]: 0%
mortality at 25 mg/m2 [30]: 7%
mortality at 12.5 mg/m2 [31]: 17%
mortality at 25 mg/m2 [31]: 23%
mortality at 12.5 mg/m2 [32]: 30%
mortality at 25 mg/m2 [32]: 53%
mortality at 12.5 mg/m2 [33]: 0%
mortality at 25 mg/m2 [33]: 0%
mortality at 12.5 mg/m2 [34]: 0%
mortality at 25 mg/m2 [34]: 10%
mortality at 12.5 mg/m2 [35]: 17%
mortality at 25 mg/m2 [35]: 37%
mortality at 12.5 mg/m2 [36]: 43%
mortality at 25 mg/m2 [36]: 43%
